Test results published in the NIST ThermoML archive (doi:10.1021/acs.jced.5b00346).

Assay: molar heat capacity at constant pressure
Conditions: Liquid, Large sample (1 g) DSC

CCF [fluoroethane]
molar heat capacity at constant pressure [J/K/mol]
Conditions	2160 kPa	2580 kPa	3100 kPa	3480 kPa	4030 kPa	4460 kPa	4990 kPa	5490 kPa
305.15 K	105.01	104.34	103.9	104.19	104.67	104.39	103.81	102.94
310.15 K	107.51	106.21	106.31	106.26	105.59	105.06	105.25	104.39
315.15 K	109.82	108.66	109	108.23	107.36	106.26	106.55	105.83
320.15 K	112.17	111.69	111.64	110.44	109.53	108.18	107.94	107.46
325.15 K	–	114.86	114.09	112.89	111.88	110.87	109.67	109.34
330.15 K	–	117.79	116.59	115.92	114.57	114	112.07	111.5
335.15 K	–	–	120.68	119.81	117.99	117.51	115.25	114.14
340.15 K	–	–	129.47	125.24	122.65	121.4	119.28	117.41
345.15 K	–	–	–	132.6	128.7	126.06	124.23	121.69
350.15 K	–	–	–	–	136.59	132.45	130.05	127.26
355.15 K	–	–	–	–	148.79	142.5	136.68	134.37
360.15 K	–	–	–	–	–	159.27	147.49	142.78
